Laboratory results published in patent publication US8946273B2, “S-Triazolyl alpha-mercapto acetanilides as inhibitors of HIV reverse transcriptase” (priority 2011, dated 2015).
Where two headings read alike, the source gives them in different places.

Key:
[1] = biological target: T1, wild-type HIV reverse transcriptase (Human immunodeficiency virus type 1 group M subtype B, UniProt P04585); test: Activity on wild type reverse transcriptase (Table 1 IC50 WT); type: biochemical
T1 construct: wild-type and four mutant HIV reverse transcriptases
Procedure: Using similar methods as described above, 2-[5-bromo-4-(4-cyclopropylnaphthalen-1-yl)-4H-[1,2,4]triazol-3-ylsulfanyl]-N-(2-methyl-4-sulfamoylphenyeacetamide and 2-[5-bromo-4-(4-ethylnaphthalen-1-yl)-4H-[1,2,4]triazol-3-ylsulfanyl]-N-(2-chloro-4-sulfamoylphenyl)-acetamide were synthesized, as were the N-4-carbamyl analog, 2-[5-bromo-4-(4-ethyl-naphthalen-1-yl)-4H-[1,2,4]triazol-3-ylsulfanyl]-N-(2-chloro-4-carbamoylphenyl)-acetamide and the N-4-carboxyl analog. Each of the compounds was tested against a panel of mutant HIV reverse transcriptases, including 20 of the 22 of the mutants that are found in about 2% or more of the patient samples that are resistant to the most widely used non-nucleoside HIV-RT inhibitor efavirenz ((4S)-6-chloro-4-(cyclopropylethynyl)-1,4-dihydro-4-(trifluoromethyl)-2H-3,1-benzoxazin-2-one). […] In most cases both criteria were met. […] […].
Compounds of the invention were tested against the wild-type and four mutant HIV reverse transcriptases. The results are listed in Table 1 as EC50 (nM) and IC50 (nM). In the Table, A represents <50 nM, B is between 50 and 100 nM, and C is >100 nM. ND is not determined.

[2] = biological target: mutant HIV reverse transcriptases (Human immunodeficiency virus type 1, UniProt P12497, Y775L, cells depend on it); type: cell-based
[3] = biological target: mutant HIV reverse transcriptases (Human immunodeficiency virus type 1, UniProt P12497, Y768C, cells depend on it); type: cell-based
wild type HIV-1 = test: microbe, parasite or virus in culture; type: cell-based, human immunodeficiency virus type 1 (HIV-1)
[4] = Human immunodeficiency virus 1, Hela-JC53, read-out: EC50 WT
[5] = read-out: EC50 WT, wild-type (WT) HIV-1

Row | SMILES | IC50 [1] [nM] | EC50 [2] [nM] | EC50 [3] [nM] | EC50 (wild type HIV-1; [4]) [nM] | IC50 ([1]; read-out: IC50 WT RT, wild-type (WT) RT) [nM] | EC50 (wild type HIV-1; [5]) [nM]
1 | CCc1ccc(-n2c(SCC(=O)Nc3ccc(C(=O)O)cc3Cl)nnc2C(F)F)c2ccccc12 [compound 4] | < 50 | < 50 | < 50 | < 50 | – | –
2 | COc1ccc2c(C3CC3)ccc(-n3c(Br)nnc3SCC(=O)Nc3ccc(S(N)(=O)=O)cc3Cl)c2c1 [compound 72] | < 50 | < 50 | < 50 | < 50 | – | –
3 | Cc1cc(S(N)(=O)=O)ccc1NC(=O)CSc1nnc(Br)n1-c1ccc(C)c2c1CCCC2 [compound 80] | – | < 50 | < 50 | < 50 | – | –
4 | COc1ccc2c(C3CC3)ccc(-n3c(Br)nnc3SCC(=O)Nc3ccc(S(=O)(=O)O)cc3Cl)c2c1 [compound 113] | < 50 | > 100 | 50 to 100 | 50 to 100 | – | –
5 | NS(=O)(=O)c1ccc(NC(=O)CSc2nnc(Br)n2-c2ccc(C3CC3)c3ccccc23)c(Cl)c1 [compound 77] | – | > 100 | 50 to 100 | < 50 | – | –
6 | Cc1ccc2ccccc2c1-n1c(Br)nnc1SC(C)C(=O)Nc1ccc(S(N)(=O)=O)cc1Cl (stereo not drawn) [compound 141] | < 50 | – | – | < 50 | – | –
7 | Cc1cc(S(N)(=O)=O)ccc1NC(=O)CSc1nnc(C(F)F)n1-c1ccc(C)c2c1CCCC2 [compound 48] | < 50 | 50 to 100 | < 50 | < 50 | – | –
8 | Cc1cc(S(N)(=O)=O)ccc1NC(=O)CSc1nnc(CF)n1-c1c(C)cc(C)c2ccccc12 [compound 52] | < 50 | < 50 | < 50 | < 50 | – | –
9 | NS(=O)(=O)c1ccc(NC(=O)CSc2nnc(C(F)F)n2-c2ccc(C3CCC3)c3ccccc23)c(Cl)c1 [compound 100] | – | < 50 | < 50 | – | < 50 | < 50
10 | NS(=O)(=O)c1ccc(NC(=O)CSc2nnc(C(F)F)n2-c2ccc(C3CCCC3)c3ccccc23)c(Cl)c1 [compound 68] | < 50 | > 100 | < 50 | < 50 | – | –
11 | NS(=O)(=O)c1ccc(NC(=O)CSc2nnc(C(F)F)n2-c2ccc(C3CCC3)c3ccccc23)c(Cl)c1 [compound 69] | < 50 | < 50 | < 50 | < 50 | – | –
12 | NS(=O)(=O)c1ccc(NC(=O)CSc2nnc(Br)n2-c2ccc(C3CC3)c3ccccc23)c(Cl)c1 [compound 39] | – | < 50 | < 50 | – | – | < 50
13 | Cc1cc(C2CC2)c2ccccc2c1-n1c(Br)nnc1SCC(=O)Nc1ccc(S(=O)(=O)O)cc1Cl [compound 15] | < 50 | > 100 | 50 to 100 | < 50 | – | –
14 | NS(=O)(=O)c1ccc(NC(=O)CSc2nnc(Br)n2-c2ccc(F)c3ccccc23)c(Cl)c1 [compound 61] | < 50 | < 50 | < 50 | < 50 | – | –
15 | Cc1ccc(-n2c(SCC(=O)Nc3ccc(S(=O)(=O)NCCC(=O)O)cc3Cl)nnc2C(F)F)c2c1CCCC2 [compound 58] | < 50 | > 100 | > 100 | 50 to 100 | – | –
16 | CCCc1ccc(-n2c(Br)nnc2SCC(=O)Nc2ccc(S(N)(=O)=O)cc2Cl)c2ccccc12 [compound 85] | – | < 50 | < 50 | < 50 | – | –
17 | Cc1cc(S(N)(=O)=O)ccc1NC(=O)CSc1nnc(C)n1-c1ccc(C)c2c1CCCC2 [compound 45] | < 50 | 50 to 100 | < 50 | < 50 | – | –
18 | O=C(CSc1nnc(Br)n1-c1cccc2c(OCC3CC3)cccc12)Nc1ccc(C(=O)O)cc1Cl [compound 32] | > 100 | > 100 | > 100 | > 100 | – | –
19 | Cc1cc(C2CC2)cc(C)c1-n1c(Br)nnc1SCC(=O)Nc1ccc(C(=O)O)cc1Cl [compound 33] | < 50 | > 100 | < 50 | < 50 | – | –
20 | CCc1ccc(-n2c(SCC(=O)Nc3ccc(C(=O)O)cc3Cl)nnc2C(F)(F)F)c2ccccc12 [compound 16] | < 50 | > 100 | 50 to 100 | < 50 | – | –
21 | CCc1ccc(-n2c(Br)nnc2SCC(=O)Nc2ccc(C(=O)NCC(OC)OC)cc2Cl)c2ccccc12 [compound 118] | < 50 | < 50 | < 50 | < 50 | – | –
22 | Cc1cc(S(N)(=O)=O)ccc1NC(=O)CSc1nnc(Br)n1-c1c(Cl)cc(C2CCC2)c2ccccc12 [compound 92] | < 50 | < 50 | < 50 | < 50 | – | –
23 | Cc1cc(C2CC2)cc(Cl)c1-n1c(Br)nnc1SCC(=O)Nc1ccc(C(=O)O)cc1Cl [compound 28] | – | < 50 | < 50 | – | – | –
